The record followed here is US10537097B2, “Methods for treating red blood cells” (VIACELL, LLC., priority 2010, dated 2020).

The test system of series [1] is stored RBCs. Nature of the series: 2,3-DPG level of stored RBCs after incubation with storage and/or rejuvenating composition (Roche 2,3-DPG kit). As to conditions: 60 minutes at 37° C. Type of series: cell-based. The protocol: A storage and/or rejuvenating composition that includes D-ribose, inosine, sodium pyruvate, and inorganic phosphate, all at a 300 mM concentration as a slurry was prepared. When used to store and/or rejuvenate RBCs, the slurry is diluted 30-fold to a final concentration of 10 mM to form a solution. […] In a study, RBCs were collected and stored for an average of 21 days at 4° C. according to standard blood banking practice. Various RBC storage and/or rejuvenating compositions were added to the 21-day old stored RBCs and held at 37° C. for one to four hours before being tested for 2,3-DPG concentrations. […] A normal 2,3-DPG concentration of RBC immediately upon harvest is 4.0 μmol/ml. […] An increase to 1.0 μmol/ml is considered a significant improvement.

Series [2] in a line: Solubility of nucleoside / concentrated composition. It is filed as physicochemical. As to conditions: with L-arginine in an equimolecular solution; room temperature.

Take `Nc1nc2c(ncn2[C@@H]2O[C@H](CO)[C@@H](O)[C@H]2O)c(=O)[nH]1` [Guanosine]: the “2,3-DPG” value in series [1] (1 mM guanosine with 10 mM each inorganic phosphate and D-ribose, no sodium pyruvate) amounted to 0.47 µmol/mL; in series [1] (5 mM guanosine with 10 mM each inorganic phosphate and D-ribose, no sodium pyruvate) it was 1.30 µmol/mL; in series [1] (10 mM guanosine with 10 mM each inorganic phosphate and D-ribose, no sodium pyruvate), 1.10 µmol/mL. For the same molecule, in series [1] (guanosine at indicated concentration with 10 mM each inorganic phosphate and D-ribose, no sodium pyruvate), the Rejuvenation result is recorded as “Rejuvenation was observed”.
On to `OC[C@H]1O[C@@H](n2cnc3c(O)ncnc32)[C@H](O)[C@@H]1O` [inosine], for which the “Concentration at which inosine remained in solution” value in series [2] is reported as “above 50 mM”.
On to `O=C[C@H](O)[C@H](O)[C@H](O)COP(=O)(O)O` [ribose-5-phosphate], for which, in series [1] (varying concentrations replacing inosine, with 10 mM each D-ribose, sodium pyruvate, inorganic phosphate), the Rejuvenation result was “Rejuvenation was not observed”.
